Ten molecules from ChEMBL document CHEMBL1201862, “PubChem BioAssay data set” (2004) can be followed below.

Structures are written as SMILES.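 Five concentrations, 48 hours, 96-well plates. GI50 marks 50% less growth.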 Calls of active or inactive are those of the source. No stated cut-off is given here; in the data, active = GI50 up to about 1.1 µM and inactive = higher. Where a SMILES comes first, the peptide text is derived from it. Residues, ends and D or L forms follow the SMILES beside them. The star is where a group is joined. *: point of attachment. Ethyl(2-NMe3+) = C[N+](C)(C)CC*; Cbz = O=C(OCc1ccccc1)*; Boc = CC(C)(C)OC(=O)*; tBu = CC(C)(C)*

What all share (assay): NCI-60 cell line screen, 48 h
For assay [1], the system named is A549.
For assay [2], the system named is HOP-62.
Assay [3] deals with IGROV-1.
Assay [4] relates to KM12.
For assay [5], the system named is M14.
For assay [6], the system named is MCF7.
The subject of assay [7] is MDA-MB-231.
Assay [8] relates to NCI/ADR-RES.
Assay [9] relates to RPMI-8226.
For assay [10], the system named is RXF 393.
In assay [11] the test system is SF-295.
For assay [12], the system named is SK-MEL-5.
Assay [13] relates to SK-OV-3.
For assay [14], the system named is SN12C.
The test system of assay [15] is SNB-19.
In assay [16] the test system is SNB-75.
Assay [17] deals with T47D.
Assay [18] has as its system UACC-257.
Assay [19] has as its system UO-31.

Turning to `COc1oc(C(=O)NC2CCCCC2)c(-c2ccc(Cl)cc2)c1S(=O)(=O)c1ccccc1`, the GI50 in assay [1] was 23.7 µM (inactive); in assay [2] it was 6.27 µM (inactive); in assay [3], 1.82 µM (inactive); in [4], 5.55 µM (inactive); in assay [5] it was 26.9 µM (inactive); in assay [6] it was 36.1 µM (inactive). Also, the GI50 was 9.51 µM (inactive) in [7]; 2.76 µM (inactive) in assay [8]; 2.15 µM (inactive) in assay [9]; 3.02 µM (inactive) in assay [10]; 23.4 µM (inactive) in assay [11]; 28.1 µM (inactive) in [12]. Moreover, the GI50 was 25.6 µM (inactive) in [13]; 20.1 µM (inactive) in [14]; 99.3 µM (inactive) in assay [15]; 20.8 µM (inactive) in assay [16]; 37.7 µM (inactive) in assay [17]; 11.8 µM (inactive) in assay [18]. Besides, the GI50 in assay [19] was 1.82 µM (inactive).
Regarding `CC(=O)OC1COC(n2c(-c3ccc(Cl)cc3)cc(-c3ccccc3)c(C#N)c2=S)C(OC(C)=O)C1OC(C)=O` (stereo not given), the GI50 in assay [1] was 13.4 µM (inactive); in assay [2], 9.23 µM (inactive); in [3], 18.2 µM (inactive); in assay [4], 14.7 µM (inactive); in assay [5], 17.2 µM (inactive); in assay [6], 8.43 µM (inactive). The GI50 in assay [7] was 2.88 µM (inactive); in assay [8], 14.1 µM (inactive); in [9], 29.9 µM (inactive); in assay [10], 12.9 µM (inactive); in assay [11], 14.7 µM (inactive); in assay [12], 8.51 µM (inactive). For the same molecule, the GI50 in assay [13] was 28.2 µM (inactive); in [14] it was 9.25 µM (inactive); in assay [15], 31 µM (inactive); in assay [16], 15.7 µM (inactive); in assay [17] it was 14.1 µM (inactive); in assay [18] it was 41.6 µM (inactive). For the same molecule, the GI50 in assay [19] was 17.6 µM (inactive).
Take `O=C(NC1=NC2C=CC([N+](=O)[O-])=CC2S1)C(=O)Nn1c(S)nc2ccccc2c1=O` (stereo not given): the GI50 in assay [1] was > 100 µM (inactive); in assay [2] it was > 100 µM (inactive); in [3], 21 µM (inactive); in [4], > 100 µM (inactive); in [5] it was > 100 µM (inactive); in [6] it was 97.7 µM (inactive). Moreover, the GI50 is 63.8 µM (inactive) in assay [7]; > 100 µM (inactive) in [8]; 50.6 µM (inactive) in assay [9]; 50.6 µM (inactive) in assay [10]; 88.9 µM (inactive) in [11]; 88.1 µM (inactive) in [12]. Also, the GI50 in assay [13] was 63 µM (inactive); in assay [14] it was > 100 µM (inactive); in assay [15] it was 24.3 µM (inactive); in assay [16] it was 47.1 µM (inactive); in assay [17], 80.5 µM (inactive); in [18], > 100 µM (inactive). For the same molecule, the GI50 in [19] was 27.7 µM (inactive).
Take `COc1cccc(C2c3cc4c(cc3OC(C)(N3CCCC3)C2C)OCO4)c1OC` (stereo not given): the GI50 in assay [1] is 5.58 µM (inactive); in assay [2] it was 14.3 µM (inactive); in [3], 5.82 µM (inactive); in [4] it was 6.78 µM (inactive); in assay [5] it was 14.6 µM (inactive); in [6], 11.9 µM (inactive). Also, the GI50 is 19.5 µM (inactive) in [7]; 7.46 µM (inactive) in [8]; 8.97 µM (inactive) in [9]; 14.8 µM (inactive) in [10]; 9.1 µM (inactive) in assay [11]; 13.4 µM (inactive) in assay [12]. Also, the GI50 in assay [13] is 5.82 µM (inactive); in assay [14], 6.52 µM (inactive); in assay [15], 22.8 µM (inactive); in assay [16] it was 8.89 µM (inactive); in [17], 4.24 µM (inactive); in assay [18], 16 µM (inactive). The GI50 in assay [19] was 6.41 µM (inactive).
For the molecule `CC1OC(OC2C(O[C@H]3CC[C@@]4(C)C(=CC[C@H]5[C@@H]6C[C@@H]7O[C@]8(CC[C@@H](C)CO8)[C@@H](C)[C@@H]7[C@@]6(C)CC[C@@H]54)C3)OC(CO)C(OC3OC(CO)C(O)C3O)C2O)C(O)C(O)C1O` (stereo not given in full), the GI50 in assay [1] is 0.634 µM (active); in assay [2], 0.897 µM (active); in assay [3], 0.847 µM (active); in assay [4] it was 0.912 µM (active); in assay [5], 0.745 µM (active); in assay [6], 0.774 µM (active). In addition, the GI50 is 0.8 µM (active) in assay [7]; 0.91 µM (active) in [8]; 0.724 µM (active) in [9]; 0.865 µM (active) in assay [10]; 0.745 µM (active) in assay [11]; 0.746 µM (active) in [12]. Also, the GI50 in assay [13] is 0.94 µM (active); in [14] it was 0.571 µM (active); in assay [15] it was 0.762 µM (active); in assay [16] it was 0.724 µM (active); in assay [17], 1.12 µM (active); in assay [18], 0.908 µM (active). For the same molecule, in assay [19], the GI50 was 0.798 µM (active).
Consider `COC(=O)C(Cc1ccc2c(c1)CCCC2)Cc1cc2c(cc1C(O)OC)CCC2` (stereo not given), for which the GI50 was 41.5 µM (inactive) in [1]; > 100 µM (inactive) in assay [2]; > 100 µM (inactive) in [3]; 44.7 µM (inactive) in assay [4]; 93.3 µM (inactive) in assay [5]; 29.4 µM (inactive) in assay [6]. In addition, the GI50 in assay [7] was > 100 µM (inactive); in assay [8], 32.8 µM (inactive); in assay [9] it was 27.9 µM (inactive); in assay [10] it was 24.3 µM (inactive); in assay [11], 61.5 µM (inactive); in [12], 33.4 µM (inactive). The GI50 in [13] was > 100 µM (inactive); in assay [14], 96.2 µM (inactive); in [15] it was > 100 µM (inactive); in assay [16], > 100 µM (inactive); in assay [17], 29.3 µM (inactive); in [18], 14.7 µM (inactive). Besides, the GI50 in assay [19] is 93.8 µM (inactive).
Turning to `O=[N+]([O-])/C(Cl)=C(\Nc1ccccc1)C(Cl)=C(Cl)Cl`, the GI50 in assay [1] was 32.7 µM (inactive); in [2], 29 µM (inactive); in assay [3] it was 32.4 µM (inactive); in assay [4], 12.9 µM (inactive); in assay [5], 23.7 µM (inactive); in [6], 14.3 µM (inactive). The GI50 in assay [7] is 34.4 µM (inactive); in assay [8], 16 µM (inactive); in assay [9] it was 25.6 µM (inactive); in assay [10] it was 37.3 µM (inactive); in [11], 33 µM (inactive); in [12], 23.7 µM (inactive). Also, the GI50 was 43.7 µM (inactive) in assay [13]; 33.9 µM (inactive) in assay [14]; 33.5 µM (inactive) in assay [15]; 2.19 µM (inactive) in assay [16]; 29.1 µM (inactive) in [17]; 49.8 µM (inactive) in [18]. In addition, the GI50 in assay [19] was 40.7 µM (inactive).
Turning to `COC(=O)[C@H](Cc1ccccc1)NC(=O)c1ccc(CNC(=O)/C=C/c2csc(-c3ccccc3)n2)cc1`, the GI50 in assay [1] was 16.1 µM (inactive); in [2], 15.3 µM (inactive); in [3], 3.46 µM (inactive); in assay [4], 7.87 µM (inactive); in [5], 1.84 µM (inactive); in [6], 4.5 µM (inactive). Also, the GI50 in assay [7] is 10.9 µM (inactive); in assay [8], 21.2 µM (inactive); in assay [9], 7.74 µM (inactive); in assay [10] it was 8.02 µM (inactive); in [11], 7.28 µM (inactive); in assay [12], 4.22 µM (inactive). The GI50 is 23.7 µM (inactive) in assay [13]; 8.91 µM (inactive) in assay [14]; 11.8 µM (inactive) in [15]; 11 µM (inactive) in assay [16]; 2.72 µM (inactive) in [17]; 1.93 µM (inactive) in assay [18]. Moreover, in [19], the GI50 is 8.2 µM (inactive).
For `CC(NC(=O)C(Cc1ccc(OCC[N+](C)(C)C)cc1)NC(=O)OC(C)(C)C)C(=O)NC(Cc1ccccc1)C(=O)NCC(N)=O` (stereo not given) (Boc-Y(Ethyl(2-NMe3+))AFG-NH2; configuration not given here), the GI50 is 36.8 µM (inactive) in assay [1]; 2.44 µM (inactive) in assay [2]; 20.1 µM (inactive) in assay [3]; > 100 µM (inactive) in [4]; 65.9 µM (inactive) in assay [5]; > 100 µM (inactive) in [6]. Moreover, the GI50 is 2.75 µM (inactive) in assay [7]; 36.9 µM (inactive) in assay [8]; > 100 µM (inactive) in assay [9]; 11.7 µM (inactive) in assay [10]; 3.8 µM (inactive) in assay [11]; > 100 µM (inactive) in assay [12]. Also, the GI50 is 10 µM (inactive) in [13]; 37.2 µM (inactive) in [14]; 13.2 µM (inactive) in assay [15]; 13.6 µM (inactive) in assay [16]; 43.8 µM (inactive) in assay [17]; 45.2 µM (inactive) in [18]. In addition, in [19], the GI50 is 65.3 µM (inactive).
Take `CC(OC(C)(C)C)C(NC(=O)C(CCCCNC(=O)OC(C)(C)C)NC(=O)C(Cc1c[nH]c2ccccc12)NC(=O)C(Cc1ccccc1)NC(=O)OCc1ccccc1)C(=O)NC(Cc1ccccc1)C(=O)O` (stereo not given) (Cbz-FWK(Boc)T(tBu)F-OH; configuration not given here): the GI50 is > 100 µM (inactive) in assay [1]; > 100 µM (inactive) in [2]; 31 µM (inactive) in assay [3]; 43.3 µM (inactive) in assay [4]; > 100 µM (inactive) in assay [5]; 31.1 µM (inactive) in [6]. Further, the GI50 in assay [7] was 40.2 µM (inactive); in assay [8], > 100 µM (inactive); in assay [9], 43.5 µM (inactive); in [10] it was > 100 µM (inactive); in assay [11], 76.7 µM (inactive); in assay [12] it was 1.66 µM (inactive). Also, the GI50 in [13] was 39.5 µM (inactive); in assay [14] it was 25.8 µM (inactive); in assay [15], 37.7 µM (inactive); in assay [16], 15.7 µM (inactive); in [17] it was 28.4 µM (inactive); in [18], > 100 µM (inactive). Further, the GI50 in assay [19] is > 100 µM (inactive).
